Measurements as given in article PMC9046087, “Structural basis of tethered agonism of the adhesion GPCRs ADGRD1 and ADGRF1” (Nature, 2022).
Substitutions are numbered along the chain they refer to. Ends that are not written are not given here.

Key:
[1] = molecular target: T1, ADGRF1 (Homo sapiens, UniProt Q5T601, V689A); test: BRET assay using TRUPATH biosensors, Gs activation of ADGRF1; assay type: cell-based; conditions: Gs, ADGRF1 V689^ICL2A, n = 3
T1 construct: Flag (N); expressed in transfected cells; host or cells: HEK293F
T1 sequence (Q5T601 20-910 V689A): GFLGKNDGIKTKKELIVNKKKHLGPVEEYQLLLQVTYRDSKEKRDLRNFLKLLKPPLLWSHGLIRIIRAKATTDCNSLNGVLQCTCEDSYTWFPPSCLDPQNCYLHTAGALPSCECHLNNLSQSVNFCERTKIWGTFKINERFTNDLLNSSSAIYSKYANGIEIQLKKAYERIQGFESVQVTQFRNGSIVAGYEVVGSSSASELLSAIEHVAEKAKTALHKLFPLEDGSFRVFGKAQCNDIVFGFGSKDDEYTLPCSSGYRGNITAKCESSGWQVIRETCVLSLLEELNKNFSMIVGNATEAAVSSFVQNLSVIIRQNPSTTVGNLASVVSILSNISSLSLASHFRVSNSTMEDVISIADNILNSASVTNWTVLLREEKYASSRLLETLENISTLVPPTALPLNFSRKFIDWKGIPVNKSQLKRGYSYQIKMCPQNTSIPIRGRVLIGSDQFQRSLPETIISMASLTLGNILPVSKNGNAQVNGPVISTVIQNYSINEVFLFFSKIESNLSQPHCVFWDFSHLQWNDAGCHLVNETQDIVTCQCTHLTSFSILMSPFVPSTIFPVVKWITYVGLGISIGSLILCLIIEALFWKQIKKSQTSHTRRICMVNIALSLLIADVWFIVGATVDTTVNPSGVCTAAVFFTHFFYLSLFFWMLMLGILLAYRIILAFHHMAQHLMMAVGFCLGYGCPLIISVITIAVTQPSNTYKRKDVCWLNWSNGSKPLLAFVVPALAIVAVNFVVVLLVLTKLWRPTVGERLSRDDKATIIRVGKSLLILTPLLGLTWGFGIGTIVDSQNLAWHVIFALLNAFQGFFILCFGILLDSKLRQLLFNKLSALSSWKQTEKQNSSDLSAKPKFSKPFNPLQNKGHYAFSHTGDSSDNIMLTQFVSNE
Description: (§1) To study the synthetic stalk peptide-induced G protein activation of ADGRD1 and ADGRF1, a BRET assay using TRUPATH biosensors was conducted to measure the proximal interaction between RLuc8 fused to the Gα subunit and GFP2 fused to the Gγ subunit. The TRUPATH suite of biosensors was obtained from Addgene (Addgene kit no. 1000000163) as a gift from B. Roth, including GαsS-RLuc8, Gαi1-RLuc8, Gβ3 and Gγ9-GFP2 as previously described.
(§2) The wild-type or mutant ADGRD1 and ADGRF1 were transiently co-transfected with plasmids encoding Gα-RLuc8 (GαsS-RLuc8 for Gs activation assay; Gαi1-RLuc8 for Gi activation assay), Gβ3 and Gγ9-GFP2 at a ratio of 2:1:1:1 (receptor plasmid, 800 ng; G protein subunit plasmids, 400 ng for each) in 2 ml HEK293F cells at a density of 1.2 × 10^6 cells per ml. Cell cultivation and receptor surface expression measurement were performed as described above. The cells were plated into 96-well white plates (40,000 cells per well) in 60 μl of assay buffer and incubated at 37 °C for 30 min. Then 10 μl of freshly prepared 50 μM coelenterazine 400a (Nanolight Technologies) was added. […] The cells were stimulated with 30 μl of synthetic stalk peptide at different concentrations and the BRET signals were monitored continuously five times. The last measurements were used in data analysis. The BRET ratios were calculated as the ratio of the GFP2 emission to RLuc8 emission.

[2] = molecular target: T2, ADGRF1 (Homo sapiens, UniProt Q5T601, K791A); test: as above; assay type: cell-based; conditions: Gs, ADGRF1 K791^6.40bA, n = 3
T2 construct: Flag (N); expressed in transfected cells; host or cells: HEK293F
T2 sequence (Q5T601 20-910 K791A): T1 sequence (Q5T601 20-910 V689A) with A670V, K772A
Description: as §1, §2

[3] = read-out: pEC50 (mean ± s.e.m.) (converted)

Emax (mean ± s.e.m.) [1]: 77 ± 10 % of WT
EC50 [1, 3]: 204 nM
Emax (mean ± s.e.m.) [2]: 79 ± 13 % of WT
EC50 [2, 3]: 912 nM
Sequence: TSFSILMSPFVP [pF1]
